Type in all cases: in vivo, mouse
One test concerns IL-4. The test is described as follows: Serum IL-4 ELISA, allergic rhinitis mice. The settings on record: OVA allergic rhinitis; serum day 28; oral 10 mg/kg (dexamethasone 2 mg/kg); control 227, vehicle 872. The protocol:
(§1) A 0.2 mL dose of 50 μg ovalbumin (OVA) and 2 mg Alum mixture was administered to 6-week-old female Balb/c mice (Japan SLC Inc.) (day 0 of the example). Alum was used as an adjuvant. Seven days later and 14 days later, the Balb/c mice were immunized again with 0.2 mL injections of the above mixture. Starting on day 20, mice were orally treated with 10 mg/kg of norathyriol, 10 mg/kg of mangiferin 8a, 10 mg/kg of tofacitinib (JAK inhibitor), 2 mg/kg of dexamethasone (steroid) and 10 mg/kg of olopatadine (antihistamine) daily for 8 consecutive days. Starting on day 21, 400 μg OVA was administered intranasally, and nose-scratching behavior was measured on day 27. Note that tofacitinib, dexamethasone, and olopatadine are currently in clinical use in allergic rhinitis and were used as control drugs in this example.
Serum was collected from day 28 mice in Examples 6 and 7, and IL-4 production was measured by enzyme-linked immunosorbent assay (ELISA). This assay was performed using a mouse IL-4 ELISA kit (R&D).

In another test the test system is IL-5. The test is described as follows: Serum IL-5 ELISA, allergic rhinitis mice. The settings on record: OVA allergic rhinitis; serum day 28; oral 10 mg/kg (dexamethasone 2 mg/kg); control 151, vehicle 1010. The protocol:
as §1
Serum was collected from day 28 mice in Examples 6 and 7, and IL-5 production was measured by enzyme-linked immunosorbent assay (ELISA). This assay was performed using a mouse IL-5 ELISA kit (R&D).

The test system of another test is OVA-IgE antibody. The test is described as follows: Serum OVA-IgE antibody ELISA, food allergy mice. The settings on record: serum day 28, oral 10 mg/kg (dexamethasone 2 mg/kg), control 1.5, vehicle 74. The protocol:
A 0.2 mL dose of 10 μg ovalbumin (OVA) and 1 mg Alum mixture was administered to 6-week-old female Balb/c mice (Japan SLC Inc.) (day 0 of the example). Alum was used as an adjuvant. Seven days later, the Balb/c mice were immunized again with a 0.2 mL injection of the above mixture. Starting on day 14, mice were orally treated with 10 mg/kg of norathyriol, 10 mg/kg of mangiferin 8a, 10 mg/kg of tofacitinib (JAK inhibitor), 2 mg/kg of dexamethasone (steroid) and 10 mg/kg of olopatadine (antihistamine) daily for 14 consecutive days. Starting on day 14, 10 mg OVA was administered orally every other day […], and the frequency of diarrhea was measured after the final administration on day 28. Note that tofacitinib, dexamethasone, and olopatadine are currently in clinical use in food allergy and were used as control drugs in this example.
Serum was collected from day 28 mice in Examples 21, and OVA-IgE antibody production was measured by enzyme-linked immunosorbent assay (ELISA). This assay was performed using a mouse OVA-IgE antibody ELISAkit (FUJIFILM Wako).

A further test relates to BAFF. The test is described as follows: Serum BAFF ELISA, allergic rhinitis mice. Conditions: OVA allergic rhinitis; serum day 28; oral 10 mg/kg (dexamethasone 2 mg/kg); control 157, vehicle 1450. The protocol:
as §1
Serum was collected from day 28 mice in Examples 6 and 7, and BAFF production was measured by enzyme-linked immunosorbent assay (ELISA). This assay was performed using a mouse BAFF ELISA kit (R&D).

The test system of the next test is IgE antibody. The test is described as follows: Serum IgE antibody ELISA, bronchial asthma mice. Conditions: OVA bronchial asthma; serum day 28; oral 10 mg/kg (dexamethasone 2 mg/kg); control 73, vehicle 117. The protocol:
as §1, with “cough” for “nose-scratching behavior”
Serum was collected from day 28 mice in Examples 14, and IgE antibody production was measured by enzyme-linked immunosorbent assay (ELISA). This assay was performed using a mouse IgE antibody ELISA kit (R&D).

Test [1] relates to Balb/c mice with ovalbumin-induced allergic rhinitis. Nature of the test: Sneezing, ovalbumin-induced allergic rhinitis mice. The settings on record: OVA allergic rhinitis; oral daily 8 days from day 20, 10 mg/kg (dexamethasone 2 mg/kg); measured day 27; vs vehicle group. The protocol:
as §1, with “sneezing” for “nose-scratching behavior”
(§2) The group that was just immunized with OVA is called the subject group, the one that received norathyriol is called the norathyriol group, the one that received mangiferin 8a is called the mangiferin 8a group, the one that received tofacitinib is called the tofacitinib group, the one that received dexamethasone is called the dexamethasone group, and the one that received olopatadine is called the olopatadine group. Each group consisted of five animals.

In test [2] the test system is Balb/c mice with ovalbumin-induced bronchial asthma. Nature of the test: Cough, ovalbumin-induced bronchial asthma mice. The settings on record: OVA bronchial asthma; oral daily 8 days from day 20, 10 mg/kg (dexamethasone 2 mg/kg); measured day 27; vs vehicle group. The protocol: as §1, with “cough” for “nose-scratching behavior”
as §2

For `C[C@@H]1C[C@H]2[C@@H]3CCC4=CC(=O)C=C[C@]4(C)[C@@]3(F)[C@@H](O)C[C@]2(C)[C@@]1(O)C(=O)CO` [dexamethasone], the “amount of IL-4” value with IL-4 is listed as 336 pg/mL. Moreover, the “amount of IL-5” value in the test with IL-5 amounted to 314 pg/mL. Also, the “amount of OVA-IgE antibody” value in the test on OVA-IgE antibody is 21 U/mL. Moreover, the “amount of BAFF” value in the test with BAFF is 266 pg/mL. Besides, in the test on IgE antibody, the “amount of IgE antibody” value is listed as 34 ng/mL.

Take `O=c1c2cc(O)c(O)cc2oc2cc(O)cc(O)c12` [norathyriol, 1,3,6,7-tetrahydroxyxanthone]: the “amount of IL-4” value with IL-4 came out at 495 pg/mL. Also, the “amount of IL-5” value in the test with IL-5 was 633 pg/mL. Besides, the number of sneezing entry in test [1] is recorded as “significantly decreased the number of sneezing”. The “amount of OVA-IgE antibody” value in the test on OVA-IgE antibody was found to be 45 U/mL. Further, the number of coughs result in test [2] is given as “significantly decreased the number of coughs”. The “amount of BAFF” value with BAFF is recorded as 629 pg/mL. In addition, the “amount of IgE antibody” value in the test with IgE antibody came out at 88 ng/mL.

Take `CN(C)CC/C=C1/c2ccccc2COc2ccc(CC(=O)O)cc21` [olopatadine]: the “amount of IL-4” value in the test on IL-4 came out at 717 pg/mL. For the same molecule, the “amount of IL-5” value in the test with IL-5 is 880 pg/mL. The number of sneezing entry in test [1] is on record as “significantly decreased the number of sneezing”. The “amount of OVA-IgE antibody” value with OVA-IgE antibody worked out at 68 U/mL. The number of coughs entry in test [2] is listed as “significantly decreased the number of coughs”. In addition, in the test with BAFF, the “amount of BAFF” value was 1691 pg/mL. Also, in the test with IgE antibody, the “amount of IgE antibody” value came out at 126 ng/mL.

Turning to `C[C@@H]1CCN(C(=O)CC#N)C[C@@H]1N(C)c1ncnc2[nH]ccc12` [tofacitinib], the “amount of IL-4” value with IL-4 is given as 808 pg/mL. Moreover, the “amount of IL-5” value in the test on IL-5 is recorded as 839 pg/mL. Further, in test [1], the number of sneezing entry is given as “significantly decreased the number of sneezing”. For the same molecule, the “amount of OVA-IgE antibody” value in the test with OVA-IgE antibody is 61 U/mL. The number of coughs entry in test [2] was “significantly decreased the number of coughs”. Also, in the test with BAFF, the “amount of BAFF” value is 1041 pg/mL. The “amount of IgE antibody” value with IgE antibody was determined as 101 ng/mL.

These data come from patent publication US20260007634A1, “PHARMACEUTICAL COMPOSITIONS FOR THE TREATMENT OF ALLERGIC DISEASES” (KINKI UNIVERSITY, priority 2022, published 2026).
